Measurements taken from patent US9802960B2 (MILLENNIUM PHARMACEUTICALS, INC., priority 2014, dated 2017).

Target: Human VPS34 (Homo sapiens (Human), UniProt Q8NEB9)
Assay: Human VPS34 enzyme assay (Adapta TR-FRET)
Assay type: biochemical
Conditions: for inhibition at 1.11 µM / Percent Inhibition: compound concentration 1.11 μM; for inhibition at 1.11 µM: read-out: Percent Inhibition

Chain of Human VPS34 (Q8NEB9 whole entry): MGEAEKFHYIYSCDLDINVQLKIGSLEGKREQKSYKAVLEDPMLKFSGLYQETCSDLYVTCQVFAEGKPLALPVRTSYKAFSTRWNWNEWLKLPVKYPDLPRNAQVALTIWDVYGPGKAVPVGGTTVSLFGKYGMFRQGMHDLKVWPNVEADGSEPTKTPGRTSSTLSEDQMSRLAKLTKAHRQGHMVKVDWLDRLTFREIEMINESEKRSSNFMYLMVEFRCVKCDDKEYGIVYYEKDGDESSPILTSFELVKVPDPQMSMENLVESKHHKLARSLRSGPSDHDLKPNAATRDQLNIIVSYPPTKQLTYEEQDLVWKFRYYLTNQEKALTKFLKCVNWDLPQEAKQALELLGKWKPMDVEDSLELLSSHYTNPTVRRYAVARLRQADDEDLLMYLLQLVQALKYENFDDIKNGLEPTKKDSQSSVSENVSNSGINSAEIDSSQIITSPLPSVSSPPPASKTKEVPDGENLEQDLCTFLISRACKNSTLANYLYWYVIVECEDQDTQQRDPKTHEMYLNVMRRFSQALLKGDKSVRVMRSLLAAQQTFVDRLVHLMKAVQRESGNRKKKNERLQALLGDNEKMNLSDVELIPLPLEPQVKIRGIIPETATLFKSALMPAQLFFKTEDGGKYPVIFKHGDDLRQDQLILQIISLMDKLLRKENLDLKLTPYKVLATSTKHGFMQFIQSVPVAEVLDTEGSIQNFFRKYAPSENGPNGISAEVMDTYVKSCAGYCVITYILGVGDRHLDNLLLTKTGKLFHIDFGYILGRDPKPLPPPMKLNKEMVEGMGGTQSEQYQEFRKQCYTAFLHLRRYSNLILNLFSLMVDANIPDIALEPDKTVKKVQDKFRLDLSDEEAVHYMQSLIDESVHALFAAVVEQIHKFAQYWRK

Row | inhibition at 1.11 µM | SMILES | further results
1 | 96% | COC(=O)Nc1cc(-c2cnc(C)c(NS(=O)(=O)N(C)C)c2)ccn1 [Compound I-241, methyl {5-[(dimethylsulfamoyl)amino]-6-methyl-3,4′-bipyridin-2′-yl}carbamate] | –
2 | 88% | Cc1nccc(Nc2cc(-c3cnc(Cl)c(S(=O)(=O)NC45CC(C4)C5)c3)ccn2)n1 [Compound I-242, N-(bicyclo[1.1.1]pent-1-yl)-6-chloro-2′-[(2-methylpyrimidin-4-yl)amino]-3,4′-bipyridine-5-sulfonamide] | –
3 | 85% | CC(=O)Nc1cc(-c2cnc(Cl)c(NS(=O)(=O)c3ccc(Cl)cc3Cl)c2C)ccn1 [Compound I-243, N-(6-chloro-5-{[(2,4-dichlorophenyl)sulfonyl]amino}-4-methyl-3,4′-bipyridin-2′-yl)acetamide] | –
4 | 82% | Cc1ncc(-c2ccnc(NC(=O)C3CC3(F)F)c2)cc1NS(=O)(=O)N(C)C (stereo not shown) [Compound I-244, N-{5-[(dimethylsulfamoyl)amino]-6-methyl-3,4′-bipyridin-2′-yl}-2,2-difluorocyclopropanecarboxamide] | –
5 | > 99% | COc1nccc(Nc2cc(-c3cncc(C(=O)N(C)C45CC(C4)C5)c3)ccn2)n1 [Compound I-245, N-(bicyclo[1.1.1]pent-1-yl)-2′-[(2-methoxypyrimidin-4-yl)amino]-N-methyl-3,4′-bipyridine-5-carboxamide] | –
6 | 91% | Cc1ncc(-c2ccnc(Nc3ccnc(C4CC4)n3)c2)cc1C(=O)N1CCC1 [Compound I-246, azetidin-1-yl{2′-[(2-cyclopropylpyrimidin-4-yl)amino]-6-methyl-3,4′-bipyridin-5-yl}methanone] | –
7 | > 99% | CC(=O)Nc1cc(-c2cnc(C)c(NS(=O)(=O)c3ccc(F)cc3F)c2C)ccn1 [Compound I-247, N-(5-{[(2,4-difluorophenyl)sulfonyl]amino}-4,6-dimethyl-3,4′-bipyridin-2′-yl)acetamide] | –
8 | > 99% | COc1ncc(-c2ccnc(NC(C)=O)c2)c(C)c1NS(=O)(=O)c1ccc(F)cc1F [Compound I-248, N-(5-{[(2,4-difluorophenyl)sulfonyl]amino}-6-methoxy-4-methyl-3,4′-bipyridin-2′-yl)acetamide] | –
9 | 85% | Cc1nccc(Nc2cc(-c3cnc(C)c(NC(=O)c4ccc(F)cc4F)c3)ccn2)n1 [Compound I-249, 2,4-difluoro-N-{6-methyl-2′-[(2-methylpyrimidin-4-yl)amino]-3,4′-bipyridin-5-yl}benzamide] | –
10 | 99% | CC(=O)Nc1cc(-c2cnc(Cl)c(NS(=O)(=O)c3ccc(F)cc3F)c2C)c(C)cn1 [Compound I-250, N-(6-chloro-5-{[(2,4-difluorophenyl)sulfonyl]amino}-4,5′-dimethyl-3,4′-bipyridin-2′-yl)acetamide] | –
11 | 97% | CC(=O)Nc1cc(-c2cnc(Cl)c(NS(=O)(=O)c3ccccc3F)c2C)ccn1 [Compound I-251, N-(6-chloro-5-{[(2-fluorophenyl)sulfonyl]amino}-4-methyl-3,4′-bipyridin-2′-yl)acetamide] | –
12 | > 99% | COc1ncc(-c2ccnc(Nc3ccnc(C)n3)c2)cc1C(=O)N(C)c1ccc(F)cc1F [Compound I-252, N-(2,4-difluorophenyl)-6-methoxy-N-methyl-2′-[(2-methylpyrimidin-4-yl)amino]-3,4′-bipyridine-5-carboxamide] | –
13 | 96% | Cc1nccc(Nc2cc(-c3cnc(C)c(C(=O)O)c3)ccn2)n1 [Compound I-253, 6-methyl-2′-((2-methylpyrimidin-4-yl)amino)-[3,4′-bipyridine]-5-carboxylic acid] | –
14 | 77% | Cc1c(-c2ccnc(NC(=O)C3CC3(F)F)c2)cnc(Cl)c1NS(=O)(=O)c1ccc(F)cc1F (stereo not shown) [Compound I-254, N-(6-chloro-5-{[(2,4-difluorophenyl)sulfonyl]amino}-4-methyl-3,4′-bipyridin-2′-yl)-2,2-difluorocyclopropanecarboxamide] | –
15 | 95% | COC(=O)Nc1cc(-c2cnc(Cl)c(NS(=O)(=O)c3ccc(F)cc3F)c2C)ccn1 [Compound I-255, methyl (6-chloro-5-{[(2,4-difluorophenyl)sulfonyl]amino}-4-methyl-3,4′-bipyridin-2′-yl)carbamate] | –
16 | 94% | CNc1c(Cl)ncc(-c2ccnc(Nc3ccnc(C)n3)c2)c1C [Compound I-256, 6-chloro-N~5~,4-dimethyl-N~2~′-(2-methylpyrimidin-4-yl)-3,4′-bipyridine-2′,5-diamine] | –
17 | > 99% | CC(=O)Nc1cc(-c2cnc(C)c(NS(=O)(=O)N3CCC3)c2)ccn1 [Compound I-257, N-{5-[(azetidin-1-ylsulfonyl)amino]-6-methyl-3,4′-bipyridin-2′-yl}acetamide] | –
18 | 88% | CC(=O)Nc1cc(-c2cc(NS(=O)(=O)c3ccc(F)cc3F)c(C)[n+]([O-])c2)ccn1 [Compound I-258, N-[4-(5-{[(2,4-difluorophenyl)sulfonyl]amino}-6-methyl-1-oxidopyridin-3-yl)pyridin-2-yl]acetamide] | –

Row | inhibition at 1.11 µM | SMILES | further results
19 | – | CCc1c(-c2ccnc(Nc3ccnc(C)n3)c2)cnc(Cl)c1NS(=O)(=O)c1ccc(F)cc1F [Compound I-259, N-{6-chloro-4-ethyl-2′-[(2-methylpyrimidin-4-yl)amino]-3,4′-bipyridin-5-yl}-2,4-difluorobenzene sulfonamide] | Percent Inhibition: 79%
20 | 91% | CC(=O)Nc1cc(-c2cnc(C)c(NS(=O)(=O)N(C)C)c2C)ccn1 [Compound I-260, N-{5-[(dimethylsulfamoyl)amino]-4,6-dimethyl-3,4′-bipyridin-2′-yl}acetamide] | –
21 | 81% | Cc1nccc(Nc2cc(-c3cnc(C)c(C(=O)N4CCCCC4)c3)ccn2)n1 [Compound I-262, {6-methyl-2′-[(2-methylpyrimidin-4-yl)amino]-3,4′-bipyridin-5-yl}(piperidin-1-yl)methanone] | –
22 | 53% | Cc1ncc(-c2ccnc(-n3cnc4c(C)nccc43)c2)cc1NS(=O)(=O)N(C)C [Compound I-263, N,N-dimethyl-N-[6-methyl-2′-(4-methyl-1H-imidazo[4,5-c]pyridin-1-yl)-3,4′-bipyridin-5-yl]sulfuric diamide] | –
23 | 100% | Cc1c(-c2ccnc(Nc3ccnc(-c4ccccc4)n3)c2)cnc(Cl)c1NS(=O)(=O)c1ccc(F)cc1F [Compound I-264, N-{6-chloro-4-methyl-2′-[(2-phenylpyrimidin-4-yl)amino]-3,4′-bipyridin-5-yl}-2,4-difluorobenzenesulfonamide] | –
24 | > 99% | Cc1ncc(-c2ccnc(Nc3ncccn3)c2)cc1NS(=O)(=O)c1ccc(F)cc1F [Compound I-265, 2,4-difluoro-N-[6-methyl-2′-(pyrimidin-2-ylamino)-3,4′-bipyridin-5-yl]benzenesulfonamide] | –
25 | 100% | Cc1nccc(Nc2cc(-c3cnc(C)c(C(=O)N(C)C)c3)ccn2)n1 [Compound I-266, N,N,6-trimethyl-2′-[(2-methylpyrimidin-4-yl)amino]-3,4′-bipyridine-5-carboxamide] | –
26 | 97% | Cc1ncc(-c2ccnc(NC(=O)C3CC3(F)F)c2)cc1NS(=O)(=O)c1ccc(F)cc1F (stereo not shown) [Compound I-267a, N-(5-{[(2,4-difluorophenyl)sulfonyl]amino}-6-methyl-3,4′-bipyridin-2′-yl)-2,2-difluorocyclopropanecarboxamide] | –
27 | 100% | COc1ncc(-c2ccnc(NC(C)=O)c2)c(C)c1NS(=O)(=O)N(C)C [Compound I-268, N-{5-[(dimethylsulfamoyl)amino]-6-methoxy-4-methyl-3,4′-bipyridin-2′-yl}acetamide] | –
28 | > 99% | CC(=O)Nc1cc(-c2cnc(C)c(NS(=O)(=O)N3CCN(C)CC3)c2)ccn1 [Compound I-269, N-(6-methyl-5-{[(4-methylpiperazin-1-yl)sulfonyl]amino}-3,4′-bipyridin-2′-yl)acetamide] | –
29 | 91% | Cc1ncc(-c2ccnc(Nc3nc4ccccc4s3)c2)cc1NS(=O)(=O)c1ccc(F)cc1F [Compound I-271, N-[2′-(1,3-benzothiazol-2-ylamino)-6-methyl-3,4′-bipyridin-5-yl]-2,4-difluorobenzenesulfonamide] | –
30 | > 99% | Cc1cc(Nc2cc(-c3cnc(Cl)c(NS(=O)(=O)c4ccc(F)cc4F)c3C)ccn2)ccn1 [Compound I-272, N-{6-chloro-4-methyl-2′-[(2-methylpyridin-4-yl)amino]-3,4′-bipyridin-5-yl}-2,4-difluorobenzenesulfonamide] | –
31 | > 99% | CCN(C)S(=O)(=O)Nc1cc(-c2ccnc(NC(C)=O)c2)cnc1C [Compound I-273, N-(5-{[ethyl(methyl)sulfamoyl]amino}-6-methyl-3,4′-bipyridin-2′-yl)acetamide] | –
32 | > 99% | CC(=O)Nc1cc(-c2cnc(C)c(NS(=O)(=O)N3CCCC3)c2)ccn1 [Compound I-274, N-{6-methyl-5-[(pyrrolidin-1-ylsulfonyl)amino]-3,4′-bipyridin-2′-yl}acetamide] | –
33 | > 99% | Cc1nccc(Nc2cc(-c3cnc(C)c(C(=O)N(C)C45CC(C4)C5)c3)ccn2)n1 [Compound I-275, N-(bicyclo[1.1.1]pent-1-yl)-N,6-dimethyl-2′-[(2-methylpyrimidin-4-yl)amino]-3,4′-bipyridine-5-carboxamide] | –
34 | – | Cc1nccc(Nc2cc(-c3cnc(N)c(C(=O)N(C)C45CC(C4)C5)c3)ccn2)n1 [Compound I-277, 6-amino-N-(bicyclo[1.1.1]pent-1-yl)-N-methyl-2′-[(2-methylpyrimidin-4-yl)amino]-3,4′-bipyridine-5-carboxamide] | Percent Inhibition: 100%
35 | > 99% | CCc1c(-c2ccnc(NC(=O)C3CC3)c2)cnc(Cl)c1NS(=O)(=O)c1ccc(F)cc1F [Compound I-278, N-(6-chloro-5-{[(2,4-difluorophenyl)sulfonyl]amino}-4-ethyl-3,4′-bipyridin-2′-yl)cyclopropanecarboxamide] | –

Row | SMILES | inhibition at 1.11 µM | further results
36 | Cc1cccc(Nc2cc(-c3cnc(C)c(NS(=O)(=O)c4ccc(F)cc4F)c3)ccn2)n1 [Compound I-276, 2,4-difluoro-N-{6-methyl-2′-[(6-methylpyridin-2-yl)amino]-3,4′-bipyridin-5-yl}benzenesulfonamide] | 96% | IC50 (IC50 range class): < 0.01 µM
